Assay results published in US20040147607A1, “Stable gabapentin having pH within a controlled range” (priority 2000, published 2004).

Columns and labels:
[1] = Storage stability: conversion of gabapentin to its corresponding lactam (HPLC vs. standard); assay type: physicochemical; conditions: gabapentin pure; for conversion of gabapentin to its corresponding lactam: after a year of storage at 25° C. and 60% relative humidity
Procedure: Gabapentin purified according to these procedures contains less than 0.5% lactam as measured by HPLC vs. standard. After a year of storage at 25° C. and 60% relative humidity, the conversion of gabapentin to its corresponding lactam is measured not to exceed 0.2% by weight of gabapentin.

[2] = pH of purified gabapentin / gabapentin tablets; assay type: physicochemical
[3] = system: cardiozole cramp; conditions: in animals; U.S. Pat. No. 4,024,175; cited from earlier work
[4] = according to Augart (U.S. Pat. No. 6,054,482); cited from earlier work
[5] = gabapentin pure after the reslurry in methanol (Examples 2, 3: basic agent added)
[6] = gabapentin pure after crystallization in methanol (Examples 11-16: basic agent added)

Compound | conversion of gabapentin to its corresponding lactam [1] | pH [2, 6] | other results
NCC1(CC(=O)O)CCCCC1 [Example 1, 1-(aminomethyl)-1-cyclohexaneacetic acid] | ≤ 0.2 % by weight of gabapentin | – | pH [2, 5]: 6.84-7.04
NCC1(CC(=O)O)CCCCC1 [Example 2, 1-(aminomethyl)-1-cyclohexaneacetic acid] | ≤ 0.2 % by weight of gabapentin | – | pH [2, 5]: 7.15
NCC1(CC(=O)O)CCCCC1 [Example 3, 1-(aminomethyl)-1-cyclohexaneacetic acid] | ≤ 0.2 % by weight of gabapentin | – | pH [2, 5]: 6.8
NCC1(CC(=O)O)CCCCC1 [Example 4, 1-(aminomethyl)-1-cyclohexaneacetic acid] | ≤ 0.2 % by weight of gabapentin | – | –
NCC1(CC(=O)O)CCCCC1 [Example 11, 1-(aminomethyl)-1-cyclohexaneacetic acid] | ≤ 0.2 % by weight of gabapentin | 7.25 | –
NCC1(CC(=O)O)CCCCC1 [Example 12, 1-(aminomethyl)-1-cyclohexaneacetic acid] | ≤ 0.2 % by weight of gabapentin | 7.08 | amount of lactam after storage ([1]; after a year of storage at 55° C. and 50% relative humidity): less than 0.5 % by weight
NCC1(CC(=O)O)CCCCC1 [Example 13, 1-(aminomethyl)-1-cyclohexaneacetic acid] | ≤ 0.2 % by weight of gabapentin | 7.28 | amount of lactam after storage ([1]; after a year of storage at 25° C. and 50% relative humidity): less than 0.5 % by weight
NCC1(CC(=O)O)CCCCC1 [Example 14, 1-(aminomethyl)-1-cyclohexaneacetic acid] | – | 7.03 | –
NCC1(CC(=O)O)CCCCC1 [Example 15, 1-(aminomethyl)-1-cyclohexaneacetic acid] | – | 7.22 | –
NCC1(CC(=O)O)CCCCC1 [Example 16, 1-(aminomethyl)-1-cyclohexaneacetic acid] | – | 7.17 | –
NCC1(CC(=O)O)CCCCC1 [gabapentin, 1-(aminomethyl)-1-cyclohexaneacetic acid] | – | – | protective effect against cardiozole cramp [3]: protective effect against cardiozole cramp
O=C1CC2(CCCCC2)CN1 [lactam] | – | – | toxicity compared with gabapentin [4]: higher toxicity than gabapentin
